Measured values reported in patent publication US11771083B2, “Flower thinning composition and flower thinning method using same” (priority 2018, dated 2023).
Read-outs that look alike come from different tables or passages of the source.

Columns and labels:
Fuji apple variety [1] = assay: Flower-thinning effect of one alcohol species formulations (Test Example 1); assay type: in vivo; settings: for Number of lateral fruits set: 20 days post-spraying; for Lateral flower-thinning rate (%) / Total flower-thinning rate (%): relative to untreated group; for Flower-thinning contribution rate in IAP-108: spray concentration 0.2%, effect × content (0.4 or 0.6)
honeybees [2] = assay: Acute contact toxicity to honeybees, active ingredients in acetone (Test Example 4); assay type: in vivo; settings: for Lethality (%): 72 hours after treatment
honeybees [3] = settings: active ingredient dissolved in acetone
Procedure: In the contact toxicity test for honeybees, healthy honeybees bred in an outdoor beekeeping system were acclimated in a breeding cage, and then anesthetized with CO2. […] This treatment was repeated 3 times for ten honeybees per test cage, and the honeybees were bred at 25° C. under dark conditions for 72 hours. The lethality of each aliphatic alcohol was measured.

Fuji apple variety [4] = settings: in vivo; for Phytotoxicity: Fuji, apple
Procedure: Each of the chemical solutions was sprayed with a DIA (FURUPLA DIA SPRAY 570, Furupla Co., Ltd.) handy spray in both right and left directions in a sufficient amount to run along each flower cluster.
In this test, treatment (spraying) was performed when lateral flowers was in full bloom (Apr. 25, 2014), and phytotoxicity was assessed by visual scoring on day 4 after post-spraying (April 29) and day 11 after post-spraying (May 6). The flower-thinning effect was measured by recording the number of young fruits set without flower thinning on 20 days post-spraying (May 15). The flower thinning activity relative to that of the untreated group was presented as (1−number of young fruits in treated group/number of young fruits in untreated group)×100. This test was designed to have 8 replications with one flower cluster as one replication. Fertilization of the apple flowers was induced by natural fertilization.

peach leaves = settings: 3-4% decyl alcohol; cited from earlier work
[5] = treatment dose 200 μg per honeybee in acetone

For CCCCCCCCO [1-Octanol, 1-octanol], the “Number of central fruits set” value (Fuji apple variety [1]; concentration 0.2%) was 7, the “Total number of fruits set” value (Fuji apple variety [1]; concentration 0.2%) was 13 and the “Number of lateral fruits set” value (Fuji apple variety [1]; concentration 0.2%) was 6. The “Lateral flower-thinning rate (%)” value (Fuji apple variety [1]; concentration 0.2%) was 68%, the “Total flower-thinning rate (%)” value (Fuji apple variety [1]; concentration 0.2%) was 48% and the “Number of central fruits set” value (Fuji apple variety [1]; concentration 1%) was 3. The “Total number of fruits set” value (Fuji apple variety [1]; concentration 1%) was 4, the “Number of lateral fruits set” value (Fuji apple variety [1]; concentration 1%) was 1 and the “Lateral flower-thinning rate (%)” value (Fuji apple variety [1]; concentration 1%) was 95%. The “Total flower-thinning rate (%)” value (Fuji apple variety [1]; concentration 1%) was 84%, the “Efficacy (in words)” value (Fuji apple variety [1]; concentration of 1% (V/V)) was “sufficient efficacy” and the “Flower-thinning contribution rate in IAP-108” value (Fuji apple variety [1]) was 27.2%. The “Lethality (%)” value (honeybees [2]; [5]) was 50% and the “Lethality (%)” value (honeybees [3]; treatment dose 100 μg) was 50%.

In the case of CCCCCCCC/C=C\CCCCCCCCO [Oleyl alcohol, oleyl alcohol], the “Lateral flower-thinning rate (%)” value (Fuji apple variety [1]; concentration 0.1%) is reported as 16% and the “Lethality (%)” value (honeybees [2]; [5]) is reported as 20%.

For CCCCCC(=O)O [1-hexanoic acid, reference compound], the “Lethality (%)” value (honeybees [2]; [5]) was 30.0%.

In the case of CCCCCCCC(=O)O [1-octanoic acid, reference compound], the “Lethality (%)” value (honeybees [2]; [5]) is reported as 60%.

In the case of CCCCCCO [1-Hexanol, 1-hexanol], the “Number of central fruits set” value (Fuji apple variety [1]; concentration 0.2%) is reported as 6, the “Total number of fruits set” value (Fuji apple variety [1]; concentration 0.2%) is reported as 15 and the “Number of lateral fruits set” value (Fuji apple variety [1]; concentration 0.2%) is reported as 9. For the same compound, the “Lateral flower-thinning rate (%)” value (Fuji apple variety [1]; concentration 0.2%) was 53%, the “Total flower-thinning rate (%)” value (Fuji apple variety [1]; concentration 0.2%) was 40% and the “Number of central fruits set” value (Fuji apple variety [1]; concentration 1%) was 5. For the same compound, the “Total number of fruits set” value (Fuji apple variety [1]; concentration 1%) was 10, the “Number of lateral fruits set” value (Fuji apple variety [1]; concentration 1%) was 5 and the “Lateral flower-thinning rate (%)” value (Fuji apple variety [1]; concentration 1%) was 74%. For the same compound, the “Total flower-thinning rate (%)” value (Fuji apple variety [1]; concentration 1%) was 60%, the Phytotoxicity (Fuji apple variety [4]) was 0 and the “Lethality (%)” value (honeybees [2]; [5]) was 6.7%. For the same compound, the “Lethality (%)” value (honeybees [3]; treatment dose 100 μg) was 3.3%.

In the case of CCCCCCCCCCO [1-Decanol, 1-decanol], the “Number of central fruits set” value (Fuji apple variety [1]; concentration 0.01%) is reported as 6, the “Total number of fruits set” value (Fuji apple variety [1]; concentration 0.01%) is reported as 22 and the “Number of lateral fruits set” value (Fuji apple variety [1]; concentration 0.01%) is reported as 16. For the same compound, the “Lateral flower-thinning rate (%)” value (Fuji apple variety [1]; concentration 0.01%) was 16%, the “Total flower-thinning rate (%)” value (Fuji apple variety [1]; concentration 0.01%) was 12% and the “Number of central fruits set” value (Fuji apple variety [1]; concentration 0.05%) was 5. The “Total number of fruits set” value (Fuji apple variety [1]; concentration 0.05%) was 22, the “Number of lateral fruits set” value (Fuji apple variety [1]; concentration 0.05%) was 17 and the “Lateral flower-thinning rate (%)” value (Fuji apple variety [1]; concentration 0.05%) was 11%. The “Total flower-thinning rate (%)” value (Fuji apple variety [1]; concentration 0.05%) was 12%, the “Number of central fruits set” value (Fuji apple variety [1]; concentration 0.2%) was 5 and the “Total number of fruits set” value (Fuji apple variety [1]; concentration 0.2%) was 15. For the same compound, the “Number of lateral fruits set” value (Fuji apple variety [1]; concentration 0.2%) was 10, the “Lateral flower-thinning rate (%)” value (Fuji apple variety [1]; concentration 0.2%) was 47% and the “Total flower-thinning rate (%)” value (Fuji apple variety [1]; concentration 0.2%) was 40%. The “Flower-thinning contribution rate in IAP-108” value (Fuji apple variety [1]) was 28.2%, the Phytotoxicity (Fuji apple variety [4]) was 0 and the “Phytotoxicity (in words)” value (Fuji apple variety [4]) was “no phytotoxicity”. For the same compound, the “Comparative contact toxicity to honeybees (in words)” value (honeybees [2]; among aliphatic alcohols and versus fatty acids of same carbon number) was “more toxic than 1-decanoic acid”, the “Comparative contact toxicity to honeybees (in words)” value (honeybees [2]; in vivo) was “highest lethality” and the “Lethality (%)” value (honeybees [2]; treatment dose 50 μg per honeybee in acetone) was 70%. For the same compound, the “Lethality (%)” value (honeybees [2]; [5]) was 100%, the “Lethality (%)” value (honeybees [3]; treatment dose 50 μg) was 70% and the “Phytotoxicity to peach leaves” value (peach leaves) was “significant phytotoxicity”.

With CCCCCCCCCC(=O)O [1-decanoic acid, reference compound] the “Lethality (%)” value (honeybees [2]; [5]) was 90%.
